The test addresses T1, CRTH2 (DP2) (Homo sapiens, UniProt Q9Y5Y4).
T1 construct: host or cells: CHO cells
T1 sequence (Q9Y5Y4 1-395): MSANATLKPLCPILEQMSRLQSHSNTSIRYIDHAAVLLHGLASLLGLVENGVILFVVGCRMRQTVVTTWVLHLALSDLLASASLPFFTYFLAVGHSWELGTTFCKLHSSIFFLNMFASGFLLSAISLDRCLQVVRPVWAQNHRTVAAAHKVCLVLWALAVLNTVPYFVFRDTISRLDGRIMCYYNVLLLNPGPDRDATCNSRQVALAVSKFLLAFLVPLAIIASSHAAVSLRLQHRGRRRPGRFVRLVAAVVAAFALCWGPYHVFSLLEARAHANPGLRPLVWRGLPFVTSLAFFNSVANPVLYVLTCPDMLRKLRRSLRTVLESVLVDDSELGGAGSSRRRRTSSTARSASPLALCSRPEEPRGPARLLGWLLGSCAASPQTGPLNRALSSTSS
As to the kind of experiment: Radioligand binding Scintillation Proximity Assay ([3H]PGD2, hCRTH2-CHO cell membranes). The conditions noted are these: 1.5 nM [3H]PGD2, hCRTH2-CHO cell membranes, SPA. As for the experimental part: Adherent CHO cells expressing hCRTH2 (Euroscreen, Belgium) were cultured in 225 cm^2 cell culture flasks (Corning, USA) in 30 ml of medium. After two rinses of phosphate buffered saline (PBS), cells were harvested in 10 ml of PBS containing 1 mM EDTA, centrifuged at 500×g for 5 min at 4° C. and frozen at −80° C. The pellet was re-suspended in 50 mM Tris-HCl, pH 7.4, 2 mM EDTA, 250 mM Sucrose, containing protease inhibitor cocktail tablets, (Complete EDTA-free, Roche, Germany) and incubated 30 min at 4° C. Cells were disrupted by nitrogen cavitation (Parr Instruments, USA) at 4° C. (800 p.s.i. for 30 min), and centrifuged at 500×g for 10 min at 4° C. Pellet containing nuclei and cellular debris was discarded and supernatant was centrifuged 60 min at 4° C. at 45000×g. Membrane pellet was re-suspended in storage buffer (10 mM HEPES/KOH pH 7.4, 1 mM EDTA, 250 mM sucrose, protease inhibitor cocktail tablets) using Dounce homogenization and frozen in liquid nitrogen, and stored at 80° C.
Non-specific binding was determined in the presence of 10 μM PGD2 (Cayman, USA). Competing Compounds of Formula (I) were diluted in dimethylsulphoxide so that the total volume of dimethylsulfoxide was kept constant at 1% dimethylsulphoxide (Me2SO). Serial dilutions of […] were prepared and 10 μl each of the compounds of Formula (I) stock solutions were added to the binding assay reagents and incubated for 90 min with agitation at room temperature.
On the technique in general: In a scintillation proximity assay essentially only radioactivity close to the scintillant gives light.
One may read the IC50 as the point on the concentration scale where inhibition reaches its midpoint. Lower therefore signals inhibition by little substance. On to `C#Cc1cccc(CN(C(C)=O)c2cc(-c3nnn[nH]3)ccc2F)c1` [Example 2, N-(3-ethynylbenzyl)-N-[2-fluoro-5-(1H-tetrazol-5-yl)phenyl]acetamide], for which the half-maximal inhibitory concentration (IC50) amounted to 0.175 µM.

With `CCCCC(=O)N(Cc1ccc2ccccc2c1)c1cccc(-c2nnn[nH]2)c1` [Example 3, N-(2-naphthylmethyl)-N-[3-(1H-tetrazol-5-yl)phenyl]pentanamide], the concentration for half-maximal inhibition (IC50) stood at 0.049 µM.

The compound `CCCCC(=O)N(Cc1ccc2ccccc2c1)c1cc(-c2nnn[nH]2)ccc1F` [Example 6, N-[2-fluoro-5-(1H-tetrazol-5-yl)phenyl]-N-(2-naphthylmethyl)pentanamide] had a concentration for half-maximal inhibition (IC50) of 0.023 µM.

Consider `CC(C)CC(=O)N(Cc1ccc2c(c1)OCCO2)c1cc(-c2nnn[nH]2)ccc1F` [Example 7, N-(2,3-dihydro-1,4-benzodioxin-6-ylmethyl)-N-[2-fluoro-5-(1H-tetrazol-5-yl)phenyl]-3-methylbutanamide], for which the 50% inhibitory concentration (IC50) is 0.0071 µM.

On to `CCCC(=O)N(Cc1ccc2c(c1)OCCO2)c1cc(-c2nnn[nH]2)ccc1F` [Example 8, N-(2,3-dihydro-1,4-benzodioxin-6-ylmethyl)-N-[2-fluoro-5-(1H-tetrazol-5-yl)phenyl]butanamide], for which the half-maximal inhibitory concentration (IC50) was 0.0063 µM.

Turning to `CCCCC(=O)N(Cc1ccc2c(c1)OCCO2)c1cc(-c2nnn[nH]2)c(F)cc1F` [Example 10, N-[2,4-difluoro-5-(1H-tetrazol-5-yl)phenyl]-N-(2,3-dihydro-1,4-benzodioxin-6-ylmethyl)pentanamide], the IC50 was 0.054 µM.

`CCCCC(=O)N(Cc1cc2ccccc2o1)c1cc(-c2nnn[nH]2)ccc1F` [Example 12, N-(1-benzofuran-2-ylmethyl)-N-[2-fluoro-5-(1H-tetrazol-5-yl)phenyl]pentanamide] registered an IC50 of 0.0086 µM.

`CCCCC(=O)N(Cc1ccc(OC)cc1)c1cccc(-c2nnn[nH]2)c1` [Example 14, N-(4-methoxybenzyl)-N-[3-(1H-tetrazol-5-yl)phenyl]pentanamide] came in with an IC50 of 0.061 µM.

`CCCCC(=O)N(Cc1ccc2c(c1)OCCO2)c1cc(-c2nnn[nH]2)ccc1F` [Example 15, N-(2,3-dihydro-1,4-benzodioxin-6-ylmethyl)-N-[2-fluoro-5-(1H-tetrazol-5-yl)phenyl]pentanamide] returned an IC50 of 0.0042 µM.

On to `CCCCC(=O)N(Cc1cccs1)c1cccc(-c2nnn[nH]2)c1` [Example 16, N-[3-(1H-tetrazol-5-yl)phenyl]-N-(2-thienylmethyl)pentanamide], for which the half-inhibitory concentration (IC50) amounted to 0.588 µM.

Compound `CCC(=O)N(Cc1cccs1)c1cccc(-c2nnn[nH]2)c1` [Example 17, N-[3-(1H-tetrazol-5-yl)phenyl]-N-(2-thienylmethyl)propanamide] returned an IC50 of 1.59 µM.

`CCC(=O)N(Cc1ccsc1)c1cccc(-c2nnn[nH]2)c1` [Example 18, N-[3-(1H-tetrazol-5-yl)phenyl]-N-(3-thienylmethyl)propanamide] showed an IC50 of 2.1 µM.

`CCCC(=O)N(Cc1ccc2c(c1)OCCO2)c1cccc(-c2nnn[nH]2)c1` [Example 19, N-(2,3-dihydro-1,4-benzodioxin-6-ylmethyl)-N-[3-(1H-tetrazol-5-yl)phenyl]butanamide] showed a half-maximal inhibitory concentration (IC50) of 0.015 µM.

Compound `CCC(=O)N(Cc1ccc2c(c1)OCCO2)c1cccc(-c2nnn[nH]2)c1` [Example 20, N-(2,3-dihydro-1,4-benzodioxin-6-ylmethyl)-N-[3-(1H-tetrazol-5-yl)phenyl]propanamide] had an IC50 of 0.051 µM.

`CCCCC(=O)N(Cc1ccsc1)c1cccc(-c2nnn[nH]2)c1` [Example 21, N-[3-(1H-tetrazol-5-yl)phenyl]-N-(3-thienylmethyl)pentanamide] returned a half-inhibitory concentration (IC50) of 0.759 µM.

Take `CCC(=O)N(Cc1ccc(OC(F)(F)F)cc1)c1cccc(-c2nnn[nH]2)c1` [Example 22, N-[3-(1H-tetrazol-5-yl)phenyl]-N-[4-(trifluoromethoxy)benzyl]propanamide]: the concentration for half-maximal inhibition (IC50) is 0.132 µM.

As for `CCC(=O)N(Cc1c(-c2ccccc2)noc1C)c1cccc(-c2nnn[nH]2)c1` [Example 23, N-[(5-methyl-3-phenylisoxazol-4-yl)methyl]-N-[3-(1H-tetrazol-5-yl)phenyl]propanamide], the IC50 was 2.96 µM.

`CCC(=O)N(Cc1c(C)noc1-c1ccccc1)c1cccc(-c2nnn[nH]2)c1` [Example 24, N-[(3-methyl-5-phenylisoxazol-4-yl)methyl]-N-[3-(1H-tetrazol-5-yl)phenyl]propanamide] yielded an IC50 of 2.18 µM.

Regarding `CCC(=O)N(Cc1cccc(OC)c1)c1cccc(-c2nnn[nH]2)c1` [Example 25, N-(3-methoxybenzyl)-N-[3-(1H-tetrazol-5-yl)phenyl]propanamide], the IC50 was determined as 0.444 µM.

For the compound `CCC(=O)N(Cc1ccc(OC)cc1)c1cccc(-c2nnn[nH]2)c1` [Example 26, N-(4-methoxybenzyl)-N-[3-(1H-tetrazol-5-yl)phenyl]propanamide], the IC50 worked out at 0.268 µM.

In turn, `CCC(=O)N(Cc1ccc(C(F)(F)F)cc1)c1cccc(-c2nnn[nH]2)c1` [Example 27, N-[3-(1H-tetrazol-5-yl)phenyl]-N-[4-(trifluoromethyl)benzyl]propanamide] yielded an IC50 of 0.129 µM.

The compound `CCC(=O)N(Cc1cccc(C(F)(F)F)c1)c1cccc(-c2nnn[nH]2)c1` [Example 28, N-[3-(1H-tetrazol-5-yl)phenyl]-N-[3-(trifluoromethyl)benzyl]propanamide] yielded a 50% inhibitory concentration (IC50) of 0.268 µM.

With `CCCCC(=O)N(Cc1cccc(OC(F)(F)F)c1)c1cc(F)cc(-c2nnn[nH]2)c1` [Example 29, N-[3-fluoro-5-(1H-tetrazol-5-yl)phenyl]-N-[3-(trifluoromethoxy)benzyl]pentanamide], the IC50 was 0.0052 µM.

For the compound `CCC(=O)N(Cc1ccccc1)c1cccc(-c2nnn[nH]2)c1` [Example 30, N-benzyl-N-[3-(1H-tetrazol-5-yl)phenyl]propanamide], the IC50 was 2.25 µM.

For the compound `CCC(=O)N(Cc1ccc(F)cc1)c1cccc(-c2nnn[nH]2)c1` [Example 31, N-(4-fluorobenzyl)-N-[3-(1H-tetrazol-5-yl)phenyl]propanamide], the concentration for half-maximal inhibition (IC50) was 1.54 µM.

On to `CCC(=O)N(Cc1cccc(F)c1)c1cccc(-c2nnn[nH]2)c1` [Example 32, N-(3-fluorobenzyl)-N-[3-(1H-tetrazol-5-yl)phenyl]propanamide], for which the IC50 stood at 1.69 µM.

For `CCC(=O)N(Cc1ccccc1F)c1cccc(-c2nnn[nH]2)c1` [Example 33, N-(2-fluorobenzyl)-N-[3-(1H-tetrazol-5-yl)phenyl]propanamide], the IC50 is 1.16 µM.

`CCC(=O)N(Cc1ccc2c(c1)OCO2)c1cccc(-c2nnn[nH]2)c1` [Example 34, N-(1,3-benzodioxol-5-ylmethyl)-N-[3-(1H-tetrazol-5-yl)phenyl]propanamide] registered an IC50 of 0.147 µM.

Turning to `CCCCC(=O)N(Cc1ccc(OC(F)(F)F)cc1)c1cc(F)cc(-c2nnn[nH]2)c1` [Example 35, N-[3-fluoro-5-(1H-tetrazol-5-yl)phenyl]-N-[4-(trifluoromethoxy)benzyl]pentanamide], the 50% inhibitory concentration (IC50) came to 0.0089 µM.

Take `CCC(=O)N(Cc1ccc(OC(F)(F)F)cc1)c1cc(F)cc(-c2nnn[nH]2)c1` [Example 36, N-[3-fluoro-5-(1H-tetrazol-5-yl)phenyl]-N-[4-(trifluoromethoxy)benzyl]propanamide]: the concentration for half-maximal inhibition (IC50) came to 0.0093 µM.

The compound `CCC(=O)N(Cc1cccc(OC(F)(F)F)c1)c1cccc(-c2nnn[nH]2)c1` [Example 42, N-[3-(1H-tetrazol-5-yl)phenyl]-N-[3-(trifluoromethoxy)benzyl]propanamide] had a half-inhibitory concentration (IC50) of 0.245 µM.

`CCC(=O)N(Cc1nc2ccccc2s1)c1cccc(-c2nnn[nH]2)c1` [Example 43, N-(1,3-benzothiazol-2-ylmethyl)-N-[3-(1H-tetrazol-5-yl)phenyl]propanamide] yielded an IC50 of 0.663 µM.

`CCC(=O)N(Cc1nonc1C)c1cccc(-c2nnn[nH]2)c1` [Example 44, N-[(4-methyl-1,2,5-oxadiazol-3-yl)methyl]-N-[3-(1H-tetrazol-5-yl)phenyl]propanamide]: the 50% inhibitory concentration (IC50) was determined as 2.1 µM.

As for `CCC(=O)N(Cc1ccc(OC(F)(F)F)c(Cl)c1)c1cccc(-c2nnn[nH]2)c1` [Example 45, N-[3-chloro-4-(trifluoromethoxy)benzyl]-N-[3-(1H-tetrazol-5-yl)phenyl]propanamide], the half-maximal inhibitory concentration (IC50) came to 0.083 µM.

Compound `CCC(=O)N(Cc1cccc(C#CCOC)c1)c1cccc(-c2nnn[nH]2)c1` [Example 47, N-[3-(3-methoxyprop-1-yn-1-yl)benzyl]-N-[3-(1H-tetrazol-5-yl)phenyl]propanamide] yielded an IC50 of 1.14 µM.

(Values after US20120115869A1, “TETRAZOLE DERIVATIVES” (MERCK SERONO S.A., priority 2009, published 2012).)
